Reference: patent US6340689B1 (priority 1999, dated 2002)

What was measured:
[1] = system: Erythromycin-resistant Legionella spp. other than L. pneumophila; format: cell-based
[2] = system: Erythromycin-resistant L. pneumophila; format: cell-based, Legionella pneumophila

Compound	Mean PAE [1]	Mean PAE [2]	PAE (mean PAE) [2]	PAE [2]
CO/N=C1\CN(c2nc3c(cc2F)c(=O)c(C(=O)O)cn3C2CC2)CC1CN (racemic) [Gemifloxacin, (R,S)-7-(3-aminomethyl-4-methoxyiminopyrrolidin-1-yl)-1-cyclopropyl-6-fluoro-4-oxo-1,4-dihydro-1,8-naphthyridine-3-carboxylic acid]	3.34 ± 2 h	4.65 ± 3 h	4.65 h	
CC[C@H]1OC(=O)[C@H](C)[C@@H](O[C@H]2C[C@@](C)(OC)[C@@H](O)[C@H](C)O2)[C@H](C)[C@@H](O[C@@H]2O[C@H](C)C[C@H](N(C)C)[C@H]2O)[C@](C)(O)C[C@@H](C)CN(C)[C@H](C)[C@@H](O)[C@]1(C)O [Azithromycin]	2.13 ± 1 h	2.16 ± 1 h		
O=C(O)c1cn(C2CC2)c2cc(N3CCNCC3)c(F)cc2c1=O [Ciprofloxacin]	2.13 ± 3 h	2.86 ± 2 h		
CC[C@H]1OC(=O)[C@H](C)[C@@H](O[C@H]2C[C@@](C)(OC)[C@@H](O)[C@H](C)O2)[C@H](C)[C@@H](O[C@@H]2O[C@H](C)C[C@H](N(C)C)[C@H]2O)[C@](C)(OC)C[C@@H](C)C(=O)[C@H](C)[C@@H](O)[C@]1(C)O [Clarithromycin]	1.60 ± 2 h	1.90 ± 1 h		1.9 h
CC[C@H]1OC(=O)[C@H](C)[C@@H](O[C@H]2C[C@@](C)(OC)[C@@H](O)[C@H](C)O2)[C@H](C)[C@@H](O[C@@H]2O[C@H](C)C[C@H](N(C)C)[C@H]2O)[C@](C)(O)C[C@@H](C)C(=O)[C@H](C)[C@@H](O)[C@]1(C)O [Erythromycin]	0.44 ± 1 h	0.90 ± 1 h		
Cc1c(F)c(N2CCNC(C)C2)cc2c1c(=O)c(C(=O)O)cn2C1CC1 (centres unmarked) [Grepafloxacin]	3.67 ± 1 h	4.18 ± 3 h	4.18 h	
C[C@H]1COc2c(N3CCN(C)CC3)c(F)cc3c(=O)c(C(=O)O)cn1c23 [Levofloxacin]	3.24 ± 1 h	2.59 ± 2 h		2.59 h
COc1c(N2C[C@@H]3CCCN[C@@H]3C2)c(F)cc2c(=O)c(C(=O)O)cn(C3CC3)c12 [Moxifloxacin]	2.02 ± 1 h	3.38 ± 2 h	3.38 h	
CC1COc2c(N3CCN(C)CC3)c(F)cc3c(=O)c(C(=O)O)cn1c23 (centres unmarked) [Ofloxacin]	4.13 ± 2 h	2.99 ± 1 h		
CO[C@H]1/C=C/O[C@@]2(C)Oc3c(C)c(O)c4c(O)c(c(/C=N/N5CCN(C)CC5)c(O)c4c3C2=O)NC(=O)/C(C)=C\C=C\[C@H](C)[C@H](O)[C@@H](C)[C@@H](O)[C@@H](C)[C@H](OC(C)=O)[C@@H]1C [Rifampicin]	5.6 ± 3 h	0.93 ± 4 h		0.9 h
N[C@@H]1[C@H]2CN(c3nc4c(cc3F)c(=O)c(C(=O)O)cn4-c3ccc(F)cc3F)C[C@@H]12 [Trovafloxacin]	2.25 ± 2 h	2.83 ± 2 h	2.83 h	
